{
  "source": "patent US9456555B2",
  "about": "“Agent for treating grape vine wood” (Financiere Mercier, priority 2011, dated 2016)",
  "key": {"[1]": {"tested_on": "Botryosphaeria obtusa, Botryosphaeria dothidea, Eutypa lata, Fomitiporia punctata, Phaeacremonium aleophilum, Phaeomonelia chlamydospora, Phaeoacremonium spp. …", "experiment": "Comparative in vivo test of wood disinfection, PCR analysis for presence of 8 fungi", "design": "species or system grapevine", "conditions": "immersion 12 h", "description": "The in vivo test consisted of evaluating a set of 1025 plants derived from 4 rootstocks and 5 different varieties (to limit the varietal effect). Samples of the seedlings were taken before and after treatment. The treatment consisted of immersing the wood in the various solutions under test for 12 h, i.e. the usual rehydration time of the wood in the nursery (overnight). The samples of wood before and after treatment were analyzed, by extracting the total DNA of the wood samples taken, and evaluation by molecular diagnostics (PCR analysis) for the presence or absence of these 8 fungi: Botryosphaeria obtusa, Botryosphaeria dothidea, Eutypa lata, Fomitiporia punctata, Phaeacremonium aleophilum, Phaeomonelia chlamydospora, Phaeoacremonium spp. and Cylindrocarpon destructans. […] If nothing is indicated, it is because it was never found."}, "[2]": {"tested_on": "8 fungi referenced as pathogens and associated with various diseases of the wood", "experiment": "Comparative in vitro test on PDA medium, mycelium growth", "format": "cell-based", "conditions": "10 ml solution left for 12 h on PDA; observed several weeks, about 25° C.; neutral anolyte 100%", "description": "That is why an in vitro test was carried out, in order to compare the effect of water, hydrogen peroxide, desogerm and the neutral anolyte (100%) on 8 fungi referenced as pathogens and associated with various diseases of the wood. Strains of the 8 fungi mentioned above were deposited on culture medium with low discrimination (PDA—Potato Dextrose Agar—Medium). Then 10 ml of each solution was added to Petri dishes with the inoculated strains of fungi, and left for 12 h."}, "grapevine seedlings": {"tested_on": "grapevine seedlings", "experiment": "Percentage of recovery (take) after planting", "format": "in vivo", "text": "The result of recovery (take) after planting (growth of the plants) is very important, as the treatment must not be injurious for the grapevine seedlings."}},
  "data": [
    {"smiles": "OO", "note": "[H2O2, hydrogen peroxide]", "values": [
      {"measurement": "fungus found at least once among the individuals evaluated (PCR)", "setting": "[1]; Merlot.N (182), with THW (50° C.-45 min)", "value": "B.obt"},
      {"measurement": "fungus found at least once among the individuals evaluated (PCR)", "setting": "[1]; R110 (151), with THW (50° C.-45 min)", "value": "B.obt"},
      {"measurement": "fungus found at least once among the individuals evaluated (PCR)", "setting": "[1]; SO4(203), with THW (50° C.-45 min)", "value": "B.obt"},
      {"measurement": "fungus found at least once among the individuals evaluated (PCR)", "setting": "[1]; SO4(203), without THW", "value": "E.lata"},
      {"measurement": "growth of the fungi (radius of mycelium)", "setting": "[2]", "value": "a certain efficacy"},
      {"measurement": "Percentage of recovery of the treated seedlings", "setting": "grapevine seedlings; 8 days after planting", "value": 59, "unit": "%"},
      {"measurement": "Percentage of recovery of the treated seedlings", "setting": "grapevine seedlings; 20 days after planting", "value": 94.8, "unit": "%"},
      {"measurement": "alteration of the wood", "setting": "grapevine seedlings; contact with the cuttings during the rehydration phase", "value": "alters the wood"}
    ]}
  ]
}
